Key:
[1] = Solubility of paclitaxel in eugenol and in egg phosphatidylcholine/eugenol/water mixture; type: physicochemical
Description: The solubility of a given active in a mixture of hydrophobe and lipid is typically a very strongly increasing function of an increasing hydrophobe:lipid ratio, because the hydrophobe can generally be chosen specifically for its ability to solubilize the particular active whereas the choice of lipid has much more to do with its ability to form liquid crystals (in the presence of the hydrophobe, in particular).

[2] = Solubilizing paclitaxel in GRAS essential oils; type: physicochemical

solubility in lipid/eugenol/water mixture ([1]; in a mixture of 42% egg phosphatidylcholine, 35% eugenol, and 23% water): less than 1.5%
solubility in eugenol ([1]; in eugenol): over 15 % by weight
Paclitaxel solubility (w/w, approx) ([2]; in essential oil: Oil of bay): ~16% w/w
Paclitaxel solubility (w/w, approx) ([2]; in essential oil: Sweet basil): ~7% w/w
Paclitaxel solubility (w/w, approx) ([2]; in essential oil: Thyme): ~10% w/w
Structure (SMILES): CC(=O)O[C@H]1C(=O)[C@@]2(C)[C@H]([C@H](OC(=O)c3ccccc3)[C@]3(O)C[C@H](OC(=O)[C@H](O)[C@@H](NC(=O)c4ccccc4)c4ccccc4)C(C)=C1C3(C)C)[C@]1(OC(C)=O)CO[C@@H]1C[C@@H]2O [Paclitaxel]

From patent US6991809B2, “Particles with improved solubilization capacity” (Lyotropic Therapeutics, Inc., priority 2001, dated 2006)
